Test results: patent publication US20230128889A1, “REL/RELA/SPOT SMALL MOLECULES MODULATORS AND SCREENING METHODS” (priority 2020, published 2023)
Residue numbers refer to the chain shown, from its start. Numbers in names are those of the source.

B1: R249A D272A: RelTt with substitutions R249A and D272A (protein)
chain: MVGADLGLWNRLEPALAYLAPEERAKVREAYRFAEEAHRGQLRRSGEPYITHPVAVAEILAGLQMDADTVAAGLLHDTVEDCGVAPEELERRFGPTVRRIVEGETKVSKLYKLANLEGEERRAEDLRQMFIAMAEDVRIIIVKLADRLHNLRTLEHMPPEKQKRIAQETLEIYAPLAHRLGMGQLKWELEDLSFRYLHPEAFASLSARIQATQEARERLIQKAIHLLQETLARDELLQSQLQGFEVTGAPKHLYSIWKKMEREGKTLEQIYALLAVRVILDPKPAPTRESQALREKQVCYHVLGLVHALWQPIPGRVKDYIAVPKPNGYQSLHTTVIALEGLPLEVQIRTREMHRVAEYGIAAHWLYKEGLTDPEEVKRRVSWLKSIQEWQKEFSSSREFVEAVTKDLLGGRVFVFTPKGRIINLPKGATPVDFAYHIHTEVGHHMVGAKVNGRIVPLSYELQNGEIVEILTSKNAHPSKGWLEFAKTRSAKSKIRQYFRAQERQETLERGQHLLERYLKRRGLPKPTDSQLEEAAKRLSLPPSPEELYLALALNRLTPRQVAEKLYPKALLKPEKPKPQVRNEWGIRLEQDLQAPIRLASCCEPMKGDPILGFVTRGRGVTVHRADCPNLRRLLQGPEADRVIGAYWEGVGGKVVVLEVLAQDRAGLLRDVMQVVAEAGKSALGSETRVLGPLARIRLRLAVQDGEEERILQAVQKVSGVKEARWA
B2: R249A R277A Y329A: RelTt with substitutions R249A, R277A and Y329A (protein)
chain: B1 chain with A272D, R277A, Y329A
B3: R249A R277A: RelTt with substitutions R249A and R277A (protein)
chain: B1 chain with A272D, R277A
B4: R249A D272A Y329A: RelTt with substitutions R249A, D272A and Y329A (protein)
chain: B1 chain with Y329A

Experiments:
[1] = system: Rel synthetase (ST); experiment: Inhibition of Rel synthetase activity: (p)ppGpp production from GDP or GTP and radioactive ATP, TLC; format: biochemical; conditions: enzyme with GDP or GTP and radioactive ATP, absence or presence of compound
Procedure: (§1) As indicated above, the “Yes/No” in the 5th and 6th columns of TABLES A to F indicates whether there is, or respectively is not an inhibition of the synthetase (ST) and/or hydrolase (HD) activity. […] The action of a candidate compound is evaluated based on its effect on the production of (p)ppGpp. Therefore, in order to assess the potential influence of a candidate compound on synthesis activity, the enzyme was mixed with GDP or GTP and radioactive ATP to produce (p)ppGpp in absence or presence of the candidate compound. Subsequently, the reaction is developed by thin layer chromatography (TLC). In an alternative assay that enables determining the effect of a compound on the hydrolysis activity, radioactive (p)ppGpp is incubated with the enzyme and any decrease of the (p)ppGpp spot on TLC is evaluated when the assay is conducted in presence of the compound and compared to control conditions where no candidate compound is added during incubation.

[2] = system: Rel hydrolase (HD); experiment: Inhibition of Rel hydrolase activity: decrease of radioactive (p)ppGpp spot on TLC; format: biochemical; conditions: radioactive (p)ppGpp incubated with enzyme, with vs without compound
Procedure: as §1

[3] = system: full-length RelTt; experiment: ppGpp synthesis (synthase) activity of full-length RelTt and variants, 3H-labeled GDP; format: biochemical, T. thermophilus; design: Synthase activity, Substrate: GDP + ATP, RelTt + IC / Synthase activity, Substrate: GDP + ATP, RelTt + IC + tRNA^Val: unit not given here; conditions: 40° C.; for Synthase activity, Substrate: GDP + ATP, RelTt + IC + tRNA^Val: with 70S IC and deacylated tRNA^Val; for Synthase activity, Substrate: GDP + ATP, RelTt + IC: with T. thermophilus 70S IC
Procedure: FIG. 1. Biochemical characterization of full-length RelTt. (a) Hydrolysis activity of 100 nM full-length RelTt was assayed in the presence of 0.5 mM 3H-labeled ppGpp substrate either at 4° C. or 40° C. Synthetic activity of 30 nM full-length RelTt was assayed at 40° C. in the presence of either 1 mM ATP (b) or 1 mM APPNP (c), as well 0.3 mM of 3H-labeled GDP and 0.1 mM ppGpp. As indicated on the figure, the reactions were supplemented with 120 nM T. thermophilus 70S IC(MV) added either alone or in combination with 2 μM deacylated E. coli tRNAVal. All experiments were performed in HEPES:Polymix buffer, pH 7.5, 5 mM Mg^2+, either in the presence (a) or absence (b and c) of 0.5 mM Mn^2+. Error bars represent Standard deviations of the turnover estimates by linear regression.

Molecule | ST (inhibition of the synthetase activity) [1] | HD (inhibition of the hydrolase activity) [2] | Synthase activity, Substrate: GDP + ATP, RelTt + IC + tRNA^Val [3] | Synthase activity, Substrate: GDP + ATP, RelTt + IC [3] | Synthase activity, Substrate: GDP + ATP, RelTt ([3]; enzyme alone, triplicate)
O=C(O)CCNS(=O)(=O)c1cc2c3c(cccc3c1)C(=O)NC2=O [Compound 51] | Yes | Yes | – | – | –
Cn1c(=O)[nH]c(=O)c2[nH]c(SCC(=O)O)nc21 [Compound 52] | No | Yes | – | – | –
Cc1c(C(=O)N(CCC(=O)O)CC2CCCO2)sc2ncn(C)c(=O)c12 (stereo not drawn) [Compound 53] | No | Yes | – | – | –
Cc1[nH]c2ccnn2c(=O)c1CC(=O)N(CCC(=O)O)CC1CCCO1 (stereo not drawn) [Compound 54] | No | Yes | – | – | –
O=C(O)c1cccc(Nc2ncnc3[nH]cnc23)c1 [Compound 55] | No | Yes | – | – | –
Cc1nnc2ccc(N3CCN(C(=O)Nc4ccccc4[N+](=O)[O-])CC3)nn12 [Compound 56] | No | Yes | – | – | –
Cc1ccc(-n2cnnn2)cc1OCc1nnn[nH]1 [Compound 57] | No | Yes | – | – | –
Fc1cccc(-c2nnn(Cc3nnn[nH]3)n2)c1 [Compound 58] | No | Yes | – | – | –
Cc1nc(N)ncc1C(=O)NCc1cccc(-c2nnn[nH]2)c1 [Compound 59] | No | Yes | – | – | –
O=[N+]([O-])c1ccccc1OCCn1nnc(-c2ccccc2)n1 [Compound 60] | No | Yes | – | – | –
CC(C(=O)O)C(NC(=O)C(C)n1nnc(-c2ccccc2)n1)c1ccccc1 (stereo not drawn) [Compound 61] | No | Yes | – | – | –
O=[N+]([O-])c1ccc(CSc2nnc(-c3ccccc3F)o2)cc1 [Compound 62] | No | Yes | – | – | –
Cc1cc(C(=O)N2CCN(c3ncccn3)CC2)c(N)c([N+](=O)[O-])c1 [Compound 63] | No | Yes | – | – | –
O=[N+]([O-])c1ccc(Sc2nnc3c(n2)[nH]c2ccccc23)c([N+](=O)[O-])c1 [Compound 64] | No | Yes | – | – | –
Cc1ccccc1-n1c(SCC(=O)NC(=O)c2cccc([N+](=O)[O-])c2)nnc1-c1ccncc1 [Compound 65] | No | Yes | – | – | –
Cc1ccc(Nc2nc(N/N=C/c3cc(Cl)ccc3O)nc(Nc3ccc([N+](=O)[O-])cc3)n2)cc1C [Compound 66] | Yes | No | – | – | –
Cc1c(Br)c([N+](=O)[O-])nn1CC(=O)Nc1ccc(Cl)cc1Cl [Compound 67] | Yes | Yes | – | – | –
O=C(Nc1ccc(Cl)c([N+](=O)[O-])c1)c1ccc(-c2cccc(Cl)c2Cl)o1 [Compound 68] | Yes | Yes | – | – | –
CCN(CC)C(=O)CN1CCN(c2ccc(NC(=O)Cc3ccc(C)cc3)c(C(=O)O)c2)CC1 [Compound 69] | Yes | Yes | – | – | –
Cc1ccc(CC(=O)Nc2ccc(N3CCN(CC(=O)NC(C)(C)C)CC3)cc2C(=O)O)cc1 [Compound 70] | Yes | Yes | – | – | –
O=[N+]([O-])c1nn(Cc2cccc(-c3nc4c5cn[nH]c5ncn4n3)c2)cc1Cl [Compound 71] | Yes | Yes | – | – | –
O=C(Cc1ccc(Cl)cc1)Nc1ccc(-c2ccc(NC(=O)Cc3ccc(Cl)cc3)c(C(=O)O)c2)cc1C(=O)O [Compound 72] | Yes | Yes | – | – | –
COc1ccc(CC(=O)Nc2ccc(N3CCC(N4CCCCC4)CC3)cc2C(=O)O)cc1 [Compound 73] | Yes | Yes | – | – | –
Cc1ccc(CC(=O)Nc2ccc(N3CCC(N4CCCCC4)CC3)cc2C(=O)O)cc1 [Compound 74] | Yes | Yes | – | – | –
B1 | – | – | 12.0 ± 2.0 | 8.5 ± 1.0 | –
B2 | – | – | 5.4 ± 2.1 | 4.5 ± 2.3 | –
B3 | – | – | 10.5 ± 1.8 | 8.6 ± 2 | 2.6 ± 0.6
B4 | – | – | 8.8 ± 0.69 | 10.9 ± 3.6 | –
